Biological target: Beta-2 adrenergic receptor (Cavia porcellus) (UniProt Q8K4Z4)
Test: Tested for beta-2-adrenergic blocking effect by measuring the ability to inhibit the relaxing effect of epinephrine on the isolated tracheal muscle of guinea pigs

Sequence of Beta-2 adrenergic receptor (Cavia porcellus) (Q8K4Z4 whole entry, looked up): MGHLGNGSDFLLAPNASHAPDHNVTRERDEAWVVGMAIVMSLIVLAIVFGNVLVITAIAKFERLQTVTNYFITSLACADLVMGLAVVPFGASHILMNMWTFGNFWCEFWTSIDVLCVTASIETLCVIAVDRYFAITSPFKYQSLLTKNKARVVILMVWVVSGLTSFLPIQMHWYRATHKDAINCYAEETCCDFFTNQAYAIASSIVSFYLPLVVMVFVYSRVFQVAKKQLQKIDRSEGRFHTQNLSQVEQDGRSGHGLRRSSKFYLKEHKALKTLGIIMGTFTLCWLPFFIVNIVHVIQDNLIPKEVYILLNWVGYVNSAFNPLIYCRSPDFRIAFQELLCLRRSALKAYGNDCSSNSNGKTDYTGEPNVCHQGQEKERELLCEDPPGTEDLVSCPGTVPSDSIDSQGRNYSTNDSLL

IC50: 2.15 µM
SMILES: COCCc1ccc(OC(F)(F)[C@@H](O)CNC(C)C)cc1 [(S)-1,1-Difluoro-3-isopropylamino-1-[4-(2-methoxy-ethyl)-phenoxy]-propan-2-ol]

Reference: BindingDB's records for doi:10.1016/S0960-894X(97)00207-2 (1997)
